This note sets out measurements from patent US8569229B2, “Compositions and methods which modulate G-protein signaling for the treatment of inflammatory disorders such as asthma and allergic conjunctivitis” (The Children's Hospital of Philadelphia, priority 2008, dated 2013).

Entries after “also recorded” stand apart in the source; their conditions may differ. Ends that are not written are not given here.

One experiment concerns human ASM cells. The experiment is described as follows: Assay of cAMP PDE activity in ASM cell lysates. It is filed as cell-based. Conditions: for effect of pretreatment on PGE2-induced increase in PDE activity: PGE2 100 nM x 24 hr, peptides 30 μM (Example III).
In experiment [1] the test system is OVA-sensitized rabbits. The experiment is described as follows: IL-13 and IFN-γ in BALF samples of OVA-sensitized, OVA-challenged rabbits. It is filed as in vivo, rabbit. Conditions: pretreated OVA-sensitized+OVA challenged rabbits. The method, then:
(§1) In vivo studies were conducted wherein adult NZW rabbits were initially sensitized with weekly intra-peritoneal (i.p.) injections of 2.5 mg OVA and 10 mg of alum adjuvant for 4-5 weeks, and non-sensitized (control) rabbits received alum alone. Both the OVA sensitized and control animals were then challenged with either vehicle (saline) or aerosolized OVA delivered via a nebulizer. The following day, while mechanically ventilated under general anesthesia/paralysis, the rabbits' broncho-constrictor responses to intravenous (i.v.) bolus injections of cumulatively increasing doses of methacholine (MCh) were determined and induced changes in respiratory system resistance (Rrs), measured as previously described (Grunstein et al. J. Appl. Physiol: Respirat. Environ. Exercise Physiol. 57:1238-1246, 1984). Lung lavage was then performed to obtain bronchoalveolar lavage fluid (BALF) samples, and the lungs were excised for histological examination in H&E-stained paraffin-embedded 4 micron sections.

The test system of experiment [2] is rabbit ASM tissues. Description: Relaxation responsiveness to isoproterenol in isolated rabbit ASM tissues half-maximally contracted with ACh. Conditions: for effect of pretreatment on PGE2-induced impaired relaxation to isoproterenol: PGE2 100 nM x 24 hr; for relaxation responses to isoproterenol in control serum-exposed tissues pretreated with the agent: control (non-asthmatic) serum, 24 hr; for effect of pretreatment on salmeterol-induced impaired relaxation to isoproterenol: salmeterol 10 μM x 24 hr.

Experiment [3] relates to OVA-sensitized rabbits. Description: In vivo bronchoconstrictor responses to methacholine (Rrs) in OVA-sensitized, OVA-challenged rabbits. More on the design: species or system rabbit. The conditions noted are these: 1 mg/Kg by nebulizer 2 hr prior to OVA challenge, measured 24 hr after challenge. The method, then: as §1, with “Both” for “In vivo studies were conducted wherein adult NZW rabbits were initially sensitized with weekly intra-peritoneal (i.p.) injections of 2.5 mg OVA and 10 mg of alum adjuvant for 4-5 weeks, and non-sensitized (control) rabbits received alum alone. Both”, “[…].” for “Respirat.”

Experiment [4] deals with OVA-sensitized rabbits. Description: Lung histopathology in OVA-sensitized, OVA-challenged rabbits. The conditions noted are these: pretreated OVA-sensitized+OVA challenged rabbits. In kind it is in vivo, rabbit. The protocol:
as §1, with “Both” for “In vivo studies were conducted wherein adult NZW rabbits were initially sensitized with weekly intra-peritoneal (i.p.) injections of 2.5 mg OVA and 10 mg of alum adjuvant for 4-5 weeks, and non-sensitized (control) rabbits received alum alone. Both”, “[…].” for “Respirat.”

Experiment [5] has as its system rabbit ASM tissues. The experiment is described as follows: Constrictor responsiveness to acetylcholine (ACh) in isolated rabbit ASM tissues, isometric tension in organ bath. Conditions: for effect of pretreatment on PGE2-induced increase in constrictor responsiveness to ACh: PGE2 100 nM x 24 hr; for effect of pretreatment on salmeterol-induced increase in constrictor responsiveness to ACh: salmeterol 10 μM x 24 hr.

[6] abbreviates: listed as Gβγ inhibitory peptide.
[7] abbreviates: listed as anti-Gβγ cell-permeable inhibitory peptide.
[8] abbreviates: listed as MPS-conjugated anti-Gβγ peptide.
Setting [9] is: vehicle-exposed control tissues.

Turning to “MPS-Phosducin-like protein C terminus (AAVALLPAVLLALLAVTDQLGEDFFAVDLEAFLQEFGLLPEKE; also: MPS attached) [anti-Gβγ peptide]”, the “effect of pretreatment on PGE2-induced increase in PDE activity” value in the experiment on human ASM cells (setting [6]) is given as “completely ablated”; in the experiment on human ASM cells (setting [7]), “completely abrogated”. In addition, the “effect of pretreatment on salmeterol- and isoproterenol-induced increase in PDE activity” value with human ASM cells (salmeterol or isoproterenol 10 μM x 24 hr) was “completely abrogated; also recorded: ablated”. For the same substance, the “effect on OVA challenge-induced decrease in BALF IFN-γ” value with OVA-sensitized rabbits [1] is “prevents”. Also, the “effect on OVA challenge-induced increase in BALF IL-13” value with OVA-sensitized rabbits [1] is on record as “prevents”. Further, the entries for the “effect of pretreatment on PGE2-induced impaired relaxation to isoproterenol” value in the experiment with rabbit ASM tissues [2] (setting [6]) and with rabbit ASM tissues [2] (setting [7]) were “prevents” and “prevented”, respectively. For the same substance, the “relaxation responses to isoproterenol in control serum-exposed tissues pretreated with the agent” value was “enhances” with rabbit ASM tissues [2] (setting [6]) and “somewhat increased” in the experiment with rabbit ASM tissues [2] (listed as Gβγ-inhibitory peptide). The “effect of pretreatment on salmeterol-induced impaired relaxation to isoproterenol” value is “prevented” with rabbit ASM tissues [2] and “ablated” in the experiment with rabbit ASM tissues [2] (setting [8]). Moreover, the “effect of pretreatment on impaired relaxation to isoproterenol in allergic asthmatic (AS) serum-exposed tissues” value in the experiment on rabbit ASM tissues [2] (tissues passively sensitized 24 hr with AS rabbit serum) is on record as “prevented”. In addition, the “effect of the agent alone on relaxation responses to isoproterenol” value in the experiment with rabbit ASM tissues [2] (setting [9]) is reported as “no significant effect”. The “effect on airway constrictor hyper-responsiveness (Rrs responses to MCh)” value with OVA-sensitized rabbits [3] was “largely abrogated”; in the experiment with OVA-sensitized rabbits [3] (listed as MPS-conjugated anti-G βγ peptide), “prevented to a similar degree”. Also, in the experiment on OVA-sensitized rabbits [4], the “effect on pulmonary inflammatory response (peribronchial and parenchymal inflammatory cell infiltration)” value is recorded as “markedly suppressed to a similar extent; also recorded: markedly suppresses”. Further, the “effect of pretreatment on PGE2-induced increase in constrictor responsiveness to ACh” value in the experiment with rabbit ASM tissues [5] (setting [6]) is reported as “prevents”; in the experiment on rabbit ASM tissues [5] (setting [7]), “prevented”. Also, the “effect of pretreatment on salmeterol-induced increase in constrictor responsiveness to ACh” value is on record as “prevented” in the experiment on rabbit ASM tissues [5] and “ablated” in the experiment on rabbit ASM tissues [5] (setting [8]). In addition, in the experiment with rabbit ASM tissues [5] (setting [9]), the “effect of the agent alone on constrictor responses to ACh” value is “no significant effect”.
